Counter-ions that a name gives are not always drawn.
Assays:
IRE1-ASK1-TRAF2 complex [1] = assay: Co-immunoprecipitation of IRE1-ASK1-TRAF2 complex in samples from flavopiridol-treated CLL patients; set-up: species or system human; conditions: CLL patient cells in vivo following flavopiridol infusion
Experimental: (§1) Proteins extracted from whole cell lysates (50 μg/lane) were separated on polyacrylamide gels and transferred on nitrocellulose membrane. Antibodies used for immunoblots included LC3, IRE1α, TRAF2, PI3K III, ATG4C, ATG5-12, UVRAG, Beclin-1 (Cell Signaling, Boston, Mass.), GAPDH, Nrf2, ASK1, ULK1 (Santa Cruz Biotechnology), and Bif-1, ATG14-Barkor (Sigma-Aldrich, St Louis, Mo.). Species-appropriate secondary antibodies were obtained from BioRad Laboratories (Hercules, Calif.). Following antibody incubations, proteins were detected using a chemiluminescent substrate (BioRad Laboratories). For co-immunoprecipitations, TrueBlot beads (eBiosciences, San Diego, Calif.) and One-hour IP Western kit (GenScript, Piscataway, N.J.) were used according to manufacturer protocols. Quantification was done using FluorChem Q (Alpha Innotech, San Leandro Calif.).

PERK = PERK activity by eIF2α phosphorylation immunoblot in CLL cells; format: cell-based, human
Experimental: as §1

CLL patients = CLL patients treated with flavopiridol; cited from earlier work
IRE1-ASK1-TRAF2 complex [2] = assay: Co-immunoprecipitation of IRE1-ASK1-TRAF2 complex in 697 cells; format: cell-based
Experimental: as §1

Compound: CN1CC[C@H](c2c(O)cc(O)c3c(=O)cc(-c4ccccc4Cl)oc23)[C@H](O)C1 [flavopiridol, (cis-5,7-dihydroxy-2-(2-chlorophenyl)-8-[4-(3-hydroxy-1-methyl)-piperidin-yl]-1-benzopyran-4-one)hydrochloride]
- IRE1 and ASK1 association with TRAF2 (IRE1-ASK1-TRAF2 complex [1]): increase in IRE1 and ASK1 association with TRAF2
- PERK activity (phosphorylation of eIF2α) (PERK): minimally active
- CLL patients in whom drug resistance is usually observed (CLL patients): approximately 40%
- ASK1 and IRE1 protein in TRAF2 co-immunoprecipitates (IRE1-ASK1-TRAF2 complex [2]): increased levels of ASK1 and IRE1 protein in TRAF2 co-immunoprecipitates

From patent US9044474B2, “Compositions and methods for increasing drug efficacy in cancer” (The Ohio State University, priority 2010, dated 2015)
